Columns and labels:
[1] = test system: MAXF-401 human breast carcinoma xenograft; assay: Antitumor activity in MAXF-401 subcutaneous xenograft in athymic nude mice, combination with capecitabine (Example 3); assay type: in vivo; settings: monotherapy 3, 4 or 6 mg/kg; one week after final injection; 2.5% DMSO control
Procedure: The MAXF-401 human breast carcinoma cell line was obtained from Prof Fiebig (University of Freiburg, Germany). This cell line was maintained in mice; the tumor fragments were implanted subcutaneously and serially passaged in mice prior to use.
(§1) One hundred (100) 5-week-old female athymic nude mice (BALB/c nu/nu) were purchased from Charles River Japan, Inc. (Yokohama, Japan). The mice were housed in an air-conditioned room (temperature 22±2° C., relative humidity 55±10%) under 12 h light/dark cycles. The mice were given sterilized CE-2 and tap water with 25μg/mL gentamycin ad libitum. […]
(§2) The in vivo evaluation procedure for anticancer drugs was based on the methods described by Plowman, et al. (1997) for xenograft models. […] The tumor volume and body weight of each mouse were measured twice a week. […] One week after the final injection, tumor growth inhibition (TGI) was calculated using the formula (1-T/C)×100 (%), where T (treated group) and C (control group) represent the mean tumor volume change. ED50 values were calculated from values of tumor growth inhibition on day 21 using the XL fit program. […]
Packaged software (SAS preclinical package version 5.0,SAS Institute Japan, Ltd.) was used for the statistical analysis. […] ED50s were calculated from values of tumor growth inhibition percentage using XL fit program #509 (MS Excel Add Version 3.0.5 Build -In: XLfit3 12, ID Business Solutions Ltd.)

[2] = test system: KPL-4 human breast carcinoma xenograft; assay: Antitumor activity in KPL-4 orthotopic xenograft in athymic nude mice, combination with trastuzumab (Example 1); assay type: in vivo; settings: monotherapy 3, 4 or 6 mg/kg; one week after final injection; control 2.5% DMSO-saline plus 20 mg/kg human IgG
Procedure: The KPL-4 human breast carcinoma cell line was kindly donated by Prof. Kurebayashi, Kawasaki Medical Center. The cells were cultured in Dulbecco's MEM (Sigma Chemical Co.) supplemented with 5% (v/v) fetal bovine serum (Roche Diagnostics).
as §1, with “forty (140)” for “(100)”
as §2
Packaged software (SAS preclinical package version 5.0,SAS Institute Japan, Ltd.) was used for the statistical analysis. […] ED50s were calculated from values of tumor growth inhibition percentage using XL fit program #509 (MS Excel Add […], ID Business Solutions Ltd.)

In the case of `CC[C@H](C)[C@@H]([C@@H](CC(=O)N1CCC[C@H]1[C@H](SC)[C@@H](C)C(=O)N(C)CCc1cccc(O)c1)OC)N(C)C(=O)[C@@H](NC(=O)[C@H](C(C)C)N(C)C)C(C)C` [compound of formula (I-A), N-[1-({1-sec-Butyl-4-[2-(2-{[2-(3-hydroxy-phenyl)-ethyl]-methyl-carbamoyl}-1-methylsulfanyl-propyl)-pyrrolidin-1-yl]-2-methoxy-4-oxo-butyl}-methyl-carbamoyl)-2-methyl-propyl]-2-dimethylamino-3-methyl-butyramide], the “volume of tumor in comparison with control” value [1] was “decreased significantly” and the “volume of tumor in comparison with control” value [2] was “decreased significantly”.

Reference: patent US20060292158A1, “Method for the treatment of cancer using a novel pharmaceutical composition containing at least one dolastatin 10 derivative” (priority 2004, published 2006)
